Several values for one entry are separate records, joined by “and”; a condition that tells them apart may be missing. Equal values may be shown once. Records with an inconclusive call do not appear.
Test system: BDF1 mice, s.c. Lewis lung carcinoma, T/C %
Assay: NCI In Vivo Anticancer Drug Screen. Data for tumor model Lewis Lung Carcinoma (subcutaneous) in B6D2F1 (BDF1) mice
In short: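 First, mice carry a transplantable tumor. Next, groups receive either compound or vehicle. Finally, survival or tumor dimensions in the dosed animals are divided by the corresponding control figure.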

For `O=P(N1CC1)(N1CC1)N1CC1`, the T/C (endpoint: mean tumor weight, dose: 0.2 mg/kg/injection, schedule: Q01DX011 (ip), vehicle: other, higher = larger tumour) was 90 % of control, the T/C (endpoint: mean tumor weight, dose: 0.4 mg/kg/injection, schedule: Q01DX011 (ip), vehicle: other, higher = larger tumour) was 62 % of control and the T/C (endpoint: mean tumor weight, dose: 0.8 mg/kg/injection, schedule: Q01DX011 (ip), vehicle: other, higher = larger tumour) was 58 % of control and 69 % of control. The T/C (endpoint: mean tumor weight, dose: 1.3 mg/kg/injection, schedule: Q01DX011 (ip), vehicle: other, higher = larger tumour) was 37 % of control and 45 % of control and 62 % of control and the T/C (endpoint: mean tumor weight, dose: 2.0 mg/kg/injection, schedule: Q01DX011 (ip), vehicle: other, higher = larger tumour) was 70 % of control.
For `COC1=C(N)C(=O)c2nc(-c3nc(C(=O)O)c(C)cc3N)ccc2C1=O`, the T/C (endpoint: median survival time, dose: 0.02 mg/kg/injection, schedule: Q01DX009 (ip), vehicle: Klucel (hydroxypropylcellulose) (HPC), higher = longer survival) was 91 % of control, the T/C (endpoint: median survival time, dose: 0.05 mg/kg/injection, schedule: Q01DX009 (ip), vehicle: Klucel (hydroxypropylcellulose) (HPC), higher = longer survival) was 106 % of control and the T/C (endpoint: median survival time, dose: 0.1 mg/kg/injection, schedule: Q01DX009 (ip), vehicle: Klucel (hydroxypropylcellulose) (HPC), higher = longer survival) was 103 % of control.
With `CN(C)c1ccc(/C=C\c2ccnc3ccccc23)cc1` the T/C (endpoint: mean tumor weight, dose: 1.25 mg/kg/injection, schedule: Q01DX011 (ip), vehicle: other, higher = larger tumour) was 103 % of control, the T/C (endpoint: mean tumor weight, dose: 2.5 mg/kg/injection, schedule: Q01DX011 (ip), vehicle: other, higher = larger tumour) was 84 % of control and the T/C (endpoint: mean tumor weight, dose: 5.0 mg/kg/injection, schedule: Q01DX011 (ip), vehicle: other, higher = larger tumour) was 75 % of control. For the same compound, the T/C (endpoint: mean tumor weight, dose: 10.0 mg/kg/injection, schedule: Q01DX011 (ip), vehicle: other, higher = larger tumour) was 71 % of control and 83 % of control and the T/C (endpoint: mean tumor weight, dose: 20.0 mg/kg/injection, schedule: Q01DX011 (ip), vehicle: other, higher = larger tumour) was 54 % of control and 68 % of control.
In the case of `O=P(N1CCOCC1)(N1CC1)N1CC1`, the T/C (endpoint: median survival time, dose: 0.78 mg/kg/injection, schedule: Q01DX009 (ip), vehicle: saline, higher = longer survival) is reported as 100 % of control, the T/C (endpoint: median survival time, dose: 1.56 mg/kg/injection, schedule: Q01DX009 (ip), vehicle: saline, higher = longer survival) is reported as 124 % of control and the T/C (endpoint: median survival time, dose: 3.12 mg/kg/injection, schedule: Q01DX009 (ip), vehicle: saline, higher = longer survival) is reported as 100 % of control. For the same compound, the T/C (endpoint: median survival time, dose: 3.13 mg/kg/injection, schedule: Q01DX009 (ip), vehicle: saline, higher = longer survival) was 113 % of control, the T/C (endpoint: median survival time, dose: 6.25 mg/kg/injection, schedule: Q01DX009 (ip), vehicle: saline, higher = longer survival) was 97 % of control and 110 % of control and the T/C (endpoint: median survival time, dose: 25.0 mg/kg/injection, schedule: Q01DX009 (ip), vehicle: saline, higher = longer survival) was 107 % of control.
`C=C1C(=O)OC2CC(C)C3C4OC4C(O)C3(C)C(O)C12` (stereo unspecified) was tested, and the T/C (endpoint: median survival time, dose: 9.38 mg/kg/injection, schedule: Q01DX009 (ip), vehicle: saline with Tween-80, higher = longer survival) was 99 % of control, the T/C (endpoint: median survival time, dose: 18.75 mg/kg/injection, schedule: Q01DX009 (ip), vehicle: saline with Tween-80, higher = longer survival) was 96 % of control and the T/C (endpoint: median survival time, dose: 37.5 mg/kg/injection, schedule: Q01DX009 (ip), vehicle: saline with Tween-80, higher = longer survival) was 101 % of control.
`CCO/C=C1\SC(=S)N(c2ccccc2OC)C1=O` was tested, and the T/C (endpoint: median survival time, dose: 1.56 mg/kg/injection, schedule: Q01DX009 (ip), vehicle: Klucel (hydroxypropylcellulose) (HPC), higher = longer survival) was 100 % of control, the T/C (endpoint: median survival time, dose: 3.12 mg/kg/injection, schedule: Q01DX009 (ip), vehicle: Klucel (hydroxypropylcellulose) (HPC), higher = longer survival) was 98 % of control and the T/C (endpoint: median survival time, dose: 6.25 mg/kg/injection, schedule: Q01DX009 (ip), vehicle: Klucel (hydroxypropylcellulose) (HPC), higher = longer survival) was 109 % of control. For the same compound, the T/C (endpoint: median survival time, dose: 12.5 mg/kg/injection, schedule: Q01DX009 (ip), vehicle: Klucel (hydroxypropylcellulose) (HPC), higher = longer survival) was 101 % of control.
For `Nc1ccc(Cl)c(N)c1`, the T/C (endpoint: mean tumor weight, dose: 22.0 mg/kg/injection, schedule: Q01DX011 (ip), vehicle: saline, higher = larger tumour) was 115 % of control, the T/C (endpoint: mean tumor weight, dose: 33.0 mg/kg/injection, schedule: Q01DX011 (ip), vehicle: saline, higher = larger tumour) was 117 % of control and the T/C (endpoint: mean tumor weight, dose: 50.0 mg/kg/injection, schedule: Q01DX011 (ip), vehicle: saline, higher = larger tumour) was 105 % of control.
In the case of `CN[C@H]1CCc2cc(OC)c(OC)c(OC)c2-c2ccc(OC)c(=O)cc21`, the T/C (endpoint: mean tumor weight, dose: 0.63 mg/kg/injection, schedule: Q01DX011 (ip), vehicle: saline, higher = larger tumour) is reported as 59 % of control, the T/C (endpoint: mean tumor weight, dose: 1.25 mg/kg/injection, schedule: Q01DX011 (ip), vehicle: saline, higher = larger tumour) is reported as 85 % of control and the T/C (endpoint: mean tumor weight, dose: 2.5 mg/kg/injection, schedule: Q01DX011 (ip), vehicle: saline, higher = larger tumour) is reported as 61 % of control. For the same compound, the T/C (endpoint: mean tumor weight, dose: 5.0 mg/kg/injection, schedule: Q01DX011 (ip), vehicle: saline, higher = larger tumour) was 58 % of control and 72 % of control and the T/C (endpoint: mean tumor weight, dose: 7.0 mg/kg/injection, schedule: Q01DX011 (ip), vehicle: saline, higher = larger tumour) was 33 % of control.
`Cc1cc(N(CCCl)CCCl)ccc1C=Nc1cccnc1` was tested, and the T/C (endpoint: median survival time, dose: 25.0 mg/kg/injection, schedule: Q01DX009 (ip), vehicle: Klucel (hydroxypropylcellulose) (HPC), higher = longer survival) was 104 % of control, the T/C (endpoint: median survival time, dose: 25.0 mg/kg/injection, schedule: Q01DX009 (ip), vehicle: saline with Tween-80, higher = longer survival) was 95 % of control and the T/C (endpoint: median survival time, dose: 50.0 mg/kg/injection, schedule: Q01DX009 (ip), vehicle: Klucel (hydroxypropylcellulose) (HPC), higher = longer survival) was 96 % of control. The T/C (endpoint: median survival time, dose: 50.0 mg/kg/injection, schedule: Q01DX009 (ip), vehicle: saline with Tween-80, higher = longer survival) was 92 % of control, the T/C (endpoint: median survival time, dose: 100.0 mg/kg/injection, schedule: Q01DX009 (ip), vehicle: Klucel (hydroxypropylcellulose) (HPC), higher = longer survival) was 103 % of control and the T/C (endpoint: median survival time, dose: 100.0 mg/kg/injection, schedule: Q01DX009 (ip), vehicle: saline with Tween-80, higher = longer survival) was 93 % of control. For the same compound, the T/C (endpoint: median survival time, dose: 200.0 mg/kg/injection, schedule: Q01DX009 (ip), vehicle: Klucel (hydroxypropylcellulose) (HPC), higher = longer survival) was 98 % of control.
